Laboratory results as given in article PMC8004929, “Whole-Body Pharmacokinetics and Physiologically Based Pharmacokinetic Model for Monomethyl Auristatin E (MMAE)” (Journal of Clinical Medicine, 2021).
Square brackets hold non-standard residues; d marks the D form. Peptide text beside a SMILES is read from it. * marks the point of attachment. Dolaproine = CO[C@@H]([C@@H]1CCCN1)[C@@H](C)C(=O)O; Dil = CC[C@H](C)[C@H](NC)[C@@H](CC(=O)O)OC; X1 = C[C@@H](N*)[C@@H](O)c1ccccc1; NMeV = CN[C@H](C(=O)O)C(C)C

How the values were obtained:
[1] = Whole-body biodistribution / PK study of MMAE in tumor-bearing mice (LC-MS/MS, NCA); type: in vivo; conditions: 0.1 mg/kg i.v.; for AUC0−t: observed conc. by LC-MS/MS, 3 mice per time point; for KPadj: KP adjusted for percentage of cellular volume in total tissue volume
Source text: Male athymic nude mice were purchased at the age of 6 weeks from Charles River (Wilmington, NC, USA). After acclimation to the new conditions for two weeks, mice were subcutaneously injected with MDA-MB-468 (about 10 million tumor cells) into the right dorsal flank. The in vivo study adhered to the Principles of Laboratory Animal Care (National Institutes of Health publication 85–23, revised 1985) and were approved by the University at Buffalo Institutional Animal Care and Use Committee (IACUC# PHC29035Y).
A total of 18 mice (6 weeks old, 26–35 g) bearing MDA-MB-468 xenografts were used for the biodistribution studies. Then, 0.1 mg/kg MMAE was injected into the mice via the penile vein, and terminal samples were collected at 5 min and 1, 6, 12, 24, and 168 h. Three mice were sacrificed at each time point. Whole blood, tissue, and tumor were harvested. The collected tissues included the heart, liver, lung, spleen, pancreas, kidney, skin, bone, muscle, fat, and brain. Whole blood samples in ethylenediaminetetraacetic acid (EDTA) pre-coated tubes were centrifuged at 2000× g for 20 min at 4 °C, and plasma was collected and stored at −20 °C for further analysis. Harvested tissue samples were blotted dry and immediately frozen in liquid nitrogen and stored at −80 °C until homogenization.
A detailed tissue homogenization procedure has been reported previously. Briefly, different volumes of RIPA buffer containing protease inhibitor were added into the weighted tissue samples to obtain different dilution factors in each tissue. The dilution factor was 5 for heart, liver, lung, spleen, pancreas, kidney, skin, and fat, 8 for bone and muscle, and 4 for brain samples. Tissue samples were homogenized using a BeadBug™ microtube homogenizer (Benchmark, USA) at the maximum speed for 15 s followed by a 30-s ice cool down, and repeated three times. Blood samples without dilution were directly homogenized for 30 s at maximum speed and were treated the same way as tissue samples.
Then, 500 µL acetonitrile containing 0.1% formic acid was added into 100 µL of plasma, tissue, or tumor homogenate samples and then spiked with 20 µL of IS solution (D8-MMAE 150 ng/mL). After vortexing and centrifugation at 15,000× g for 15 min at 4 °C, the supernatants were transferred to glass tubes and dried under nitrogen flow at 32 °C. The dried residuals were reconstituted with 60 µL of acetonitrile/water (95:5 v/v) containing 0.1% formic acid, gently vortexed, and immediately transferred into HPLC vials.
Standards and quality control samples (QCs) were prepared for plasma and each tissue matrix. Then, 250 µL of the control plasma or matrices were spiked with 20 µL of IS solution (D8-MMAE 150 ng/mL) and 10 µL of MMAE stock solution diluted with acetonitrile, and then, 500 µL of acetonitrile containing 0.1% formic acid was added. The final concentrations of standard were 0.5, 1, 10, 100, 200, and 500 ng/mL. QCs were prepared similarly for the final concentrations of […].
A Waters Acquity LC-MS/MS system was used with electrospray interphase and triple quadrupole mass spectrometer. An ACQUITY UPLC BEH Amide column (Waters, Milford, MA, USA) was used with 5 mM ammonium formate and 0.1% formic acid as the aqueous phase, and 0.1% formic acid and 1 mM ammonium formate were used as the organic phase. The gradient flow rate was 0.25 mL/min. The lower limit of quantification of MMAE was […] (or ng/g) for plasma, blood, tissues, and tumor.
Noncompartmental analysis (NCA) was conducted for plasma PK data. AUC computed from time 0 to the last observed concentration time (AUC0−t) was calculated using the linear/log trapezoidal method in WinNonlin (version 8.1, Pharsight, St. Louis, MO, USA). Blood to plasma ratios ( KP,BC ) and tissue partition coefficients ( KP,i ) were calculated using Equation (1), using AUC0−t values derived from the observed data. (1) KP,BC or KP,i=AUCi,0−t/AUCp,0−t, […]

[2] = system: tubulin; conditions: cited from earlier work
Source text: Table 1 A glossary of literature-derived and estimated parameters used for the MMAE PBPK model. | column: Value || Physiological parameters for mice were obtained from our previously published PBPK model. Radius of the tumor blood capillary ( Rcap ), average distance between two capillaries ( Rkrough ), tumor void volume for MMAE ( ε ), P, D, and efflux rate of MMAE from the cells ( kout ) were obtained from the literature.

[3] = NCA of plasma, tumor-bearing mice

CC[C@H](C)[C@@H]([C@@H](CC(=O)N1CCC[C@H]1[C@H](OC)[C@@H](C)C(=O)N[C@H](C)[C@@H](O)c1ccccc1)OC)N(C)C(=O)[C@@H](NC(=O)[C@@H](NC)C(C)C)C(C)C [MMAE, Monomethyl auristatin E] (H-[NMeV]V[Dil][Dolaproine]-X1)
KP (tissue-to-plasma partition coefficient) ([1]; MDA-MB-468 tumor AUC0−t / plasma AUC0−t, tumor-bearing mice): 8.21 | AUC0−t ([1]; MDA-MB-468 tumor, tumor-bearing mice): 0.619 µM·h | half-life [1, 3]: 2.5 h | systemic CL [1, 3]: 60 mL/h | volume of distribution (Vss) [1, 3]: 42 mL | plasma AUC from 0 to 12 h ([1]; NCA, tumor-bearing mice): 54.3 ng·h/mL | plasma AUC from 0 to infinite ([1]; NCA, tumor-bearing mice): 54.5 ng·h/mL | injected dose remaining in plasma ([1]; after 5 min, tumor-bearing mice): 0.3% | blood-to plasma ratio ([1]; at 6 h, tumor-bearing mice): ≈ 20 | KP (partition coefficient) ([1]; blood (blood cell) AUC0−t / plasma AUC0−t, tumor-bearing mice): 5.46 | KPadj ([1]; blood, tumor-bearing mice): 5.46 | AUC0−t ([1]; blood, MDA-MB-468 tumor-bearing mice): 0.414 µM·h | KPadj ([1]; bone, tumor-bearing mice): 1.89 | AUC0−t ([1]; bone, MDA-MB-468 tumor-bearing mice): 0.11 µM·h | KP (tissue-to-plasma partition coefficient) ([1]; brain AUC0−t / plasma AUC0−t, tumor-bearing mice): 0.411 | KPadj ([1]; brain, tumor-bearing mice): 0.530 | AUC0−t ([1]; brain, MDA-MB-468 tumor-bearing mice): 0.0312 µM·h | blood-to plasma ratio ([1]; early time-points (<30 min), tumor-bearing mice): about 6 | KP (tissue-to-plasma partition coefficient) ([1]; fat AUC0−t / plasma AUC0−t, tumor-bearing mice): 2.43 | KPadj ([1]; fat, tumor-bearing mice): 3.01 | AUC0−t ([1]; fat, MDA-MB-468 tumor-bearing mice): 0.184 µM·h | decrease of MMAE concentration in the tumor ([1]; from 1 to 168 h, MDA-MB-468 tumor, mice): 50% | KP (tissue-to-plasma partition coefficient) ([1]; heart AUC0−t / plasma AUC0−t, tumor-bearing mice): 17.9 | KPadj ([1]; heart, tumor-bearing mice): 22.8 | AUC0−t ([1]; heart, MDA-MB-468 tumor-bearing mice): 1.356 µM·h | KP (tissue-to-plasma partition coefficient) ([1]; kidney AUC0−t / plasma AUC0−t, tumor-bearing mice): 31.6 | KPadj ([1]; kidney, tumor-bearing mice): 42.4 | AUC0−t ([1]; kidney, MDA-MB-468 tumor-bearing mice): 2.396 µM·h | KP (tissue-to-plasma partition coefficient) ([1]; liver AUC0−t / plasma AUC0−t (apparent, not adjusted for CLint), tumor-bearing mice): 2.42 | KPadj ([1]; liver, tumor-bearing mice): 3.80 | AUC0−t ([1]; liver, MDA-MB-468 tumor-bearing mice): 0.176 µM·h | exposure relative to plasma exposure, highly perfused tissues ([1]; lung > spleen > liver > heart, tumor-bearing mice): > 15 fold | KP (tissue-to-plasma partition coefficient) ([1]; lung AUC0−t / plasma AUC0−t, tumor-bearing mice): 35.3 | KPadj ([1]; lung, tumor-bearing mice): 64.9 | AUC0−t ([1]; lung, MDA-MB-468 tumor-bearing mice): 2.679 µM·h | KP (tissue-to-plasma partition coefficient) ([1]; muscle AUC0−t / plasma AUC0−t, tumor-bearing mice): 1.25 | KPadj ([1]; muscle, tumor-bearing mice): 1.51 | AUC0−t ([1]; muscle, MDA-MB-468 tumor-bearing mice): 0.0946 µM·h | KP (tissue-to-plasma partition coefficient) ([1]; pancreas AUC0−t / plasma AUC0−t, tumor-bearing mice): 2.11 | KPadj ([1]; pancreas, tumor-bearing mice): 2.93 | AUC0−t ([1]; pancreas, MDA-MB-468 tumor-bearing mice): 0.16 µM·h | AUC0−t ([1]; plasma, MDA-MB-468 tumor-bearing mice, linear/log trapezoidal): 0.0754 µM·h | KP (tissue-to-plasma partition coefficient) ([1]; skin AUC0−t / plasma AUC0−t, tumor-bearing mice): 1.71 | KPadj ([1]; skin, tumor-bearing mice): 2.87 | AUC0−t ([1]; skin, MDA-MB-468 tumor-bearing mice): 0.13 µM·h | KP (tissue-to-plasma partition coefficient) ([1]; spleen AUC0−t / plasma AUC0−t, tumor-bearing mice): 27.1 | KPadj ([1]; spleen, tumor-bearing mice): 47.2 | AUC0−t ([1]; spleen, MDA-MB-468 tumor-bearing mice): 2.056 µM·h | KP in the liver after accounting for CLint, without adjustments for the fractional cellular volume ([1]; tumor-bearing mice): 25.3 | exposure relative to plasma exposure, fat, pancreas, skin, bone, and muscle ([1]; tumor-bearing mice): about 2 fold | time up to which MMAE concentration in the liver was quantifiable ([1]; tumor-bearing mice, LLOQ 0.2 ng/g): 6 h | Plasma concentration after 12 h ([1]; tumor-bearing mice, LLOQ 0.2 ng/mL, LC-MS/MS): below the limit of quantification | koff, first-order dissociation rate constant between MMAE–tubulin complex ([2]; assumed): 0.000151 s⁻¹ | Kd ([2]; read-out: equilibrium dissociation rate (KD) of MMAE for free tubulin): 291 nM
